Experimental data from US8242146B2, “Combination of a NSAID and a PDE-4 inhibitor” (Nycomed GmbH, priority 2002, dated 2012).

Experiments:
[1] = target: partially purified or recombinant PDE4; experiment: Inhibition of phosphodiesterase 4 in vitro; type: biochemical
[2] = target: partially purified or recombinant PDE5 (Homo sapiens, UniProt O76074); experiment: Inhibition of phosphodiesterase 5 in vitro; type: biochemical
[3] = system: isolated guinea pig Langendorff hearts; experiment: Isolated guinea pig Langendorff heart
[4] = Diclofenac induced blood loss in mice (fecal hemoglobin); type: in vivo; conditions: male, NMRI, mouse, feces, oral; mice, 3-100 mg/kg p.o., spectrophotometric determination of fecal hemoglobin; read-out: ED50 of induced gastrointestinal bleeding
Procedure: (§1) Male NMRI mice (Charles River Laboratories, Sulzfeld, Germany) weighting 23-25 g were housed in groups of 5 under standard conditions at a temperature of 22° C.+/−2° C. and a 12 h light-dark cycle. If not otherwise stated animals had free access to tap water and standard food pellets. Diclofenac was administrated at doses from 1-100 mg/kg p.o.; rolipram, roflumliast and RP73401 were given at doses from 1-100 mg/kg p.o. Preventive treatment: Diclofenac was given at time point 0 h. At time points −24, −16, 0 h, +7 h one of the selective PDE4 inhibitors was administered. Curative treatment: Diclofenac was given at time point 0 h. At time points +1 h and +7 h one of the selective PDE4 inhibitors was administered. The drugs used were dissolved in 4% aqueous methyl cellulose. The animals were food reduced 24 h prior diclofenac administration. For each experiment 5 animals were used for one experimental point. Following 24 h administration of drugs animals were weighted and stool was collected quantitatively and homogenized as described below:
(§2) The modified method of Welch (Clin. Chem. 29/12, 2022-2025, 1983) was used. The amount of hemoglobin was determined by the heme catalyzed oxidation of tolidine in the presence of hydrogen peroxide. Feces was homogenized in destined water in a concentration with 1 g feces/6.6 ml H20 with an ultra-turrax (IKA-Werke, Germany). 500 μl aliquots from two different areas of the stool were taken to minimize error due to inhomogenous distribution of blood in the feces and heated 10 min at 95° C. to inactivate peroxidases and than diluted with 500 μl of acetic acid/H20 (30/70 vol/vol). Hemoglobin was extracted in 2.5 ml of acetic acid/H20 (30/70 vol/vol) by the addition of 4.5 ml ethyl acetate. The sample was rigorously shacked and the supernatant was used following a centrifugation step for optical detection of hemoglobin. Tolidine was prepared freshly from a stock solution (0.4 g tolidine in 10 ml ethanol) by mixing equal volumes of stock solution, H20 and acetic acid and equilibrated at room temperature. 20 μl of extracted supernatant was diluted to 100 μl ethyl acetate in a 96er crystal plate and incubated with 50 μl of the working solution. The reaction was initiated by the injection of 25 μl hydrogen peroxide (6%) in a Wallac Victor spectro-photometer (Turku, Finnland). The increase of OD 690 was monitored by a kinetic analysis and expressed as ΔOD690/min.

Male NMRI mice [5] = experiment: Indomethacin induced blood loss in mice (fecal hemoglobin); type: in vivo; conditions: NSAID 30 mg/kg indomethacin; PDE4 inhibitor 100 mg/kg p.o., curative
Procedure: as §1, with “Diclofenac was administrated at doses from 1-100 mg/kg p.o.; rolipram, roflumliast and RP73401 were given at doses from 1-100 mg/kg p.o. Preventive treatment: Diclofenac was given at time point 0 h.” left out, “Curative treatment: Diclofenac was given at time point 0 h.” left out
The modified method of Welch (Clin. Chem. 29/12, 2022-2025, 1983) was used. The amount of hemoglobin was determined by the heme catalyzed oxidation of tolidine in the presence of hydrogen peroxide. Feces was homogenized in destined water in a concentration with 1 g feces/6.6 ml H20 with an ultra-turrax (IKA-Werke, Germany). […] The increase of OD 690 was monitored by a kinetic analysis and expressed as ΔOD690/min.

Male NMRI mice [6] = experiment: Diclofenac induced blood loss in mice (fecal hemoglobin); type: in vivo; conditions: for % reduction of ΔOD690/min: NSAID 100 mg/kg diclofenac
Procedure: as §1, §2

| IC50 [1] | PDE4 activity (in words) [1] | IC50 PDE5 [2] | PDE5 activity (in words) [2] | SMILES | other results |
| --- | --- | --- | --- | --- | --- |
| 23 µM | in the μM range | 14 µM | in the μM range | CS(=O)(=O)Nc1cc2c(cc1Oc1ccc(F)cc1F)C(=O)CC2 [CGP28238, 6-(2,4-difluorophenoxy)-5-methylsulfonylamino-1-indanone] | – |
| > 100 µM | only minor effects | >100 µM | only minor effects | O=C(O)Cc1ccccc1Nc1c(Cl)cccc1Cl [Diclofenac, 2-[(2,6-dichlorophenyl)amino]benzeneacetic acid] | ED50 at 24 h [4]: 56 mg/kg |
| ~100 µM | only minor effects | 62 µM | only minor effects | COc1ccc2c(c1)c(CC(=O)O)c(C)n2C(=O)c1ccc(Cl)cc1 [Indometacin, 1-(4-chlorobenzoyl)-5-methoxy-2-methyl-1H-indole-3-acetic acid] | – |
| 31 µM | in the μM range | 24 µM | in the μM range | CS(=O)(=O)Nc1cc2c(cc1Sc1ccc(F)cc1F)C(=O)CC2 [L-745337, 5-methanesulfonamido-6-(2,4-difluorophenylthio)-1-indanone] | – |
| 58 µM | in the μM range | 25 µM | in the μM range | CS(=O)(=O)Nc1ccc([N+](=O)[O-])cc1Oc1ccccc1 [Nimesulide, 4′-nitro-2′-phenoxymethansulfonamide] | – |
| – | – | – | – | COc1ccc(C(=O)Nc2c(Cl)cncc2Cl)cc1OC1CCCC1 [RP73401] | % reduction of ΔOD690/min (Male NMRI mice [5]): 96% |
| – | – | – | – | O=C(Nc1c(Cl)cncc1Cl)c1ccc(OC(F)F)c(OCC2CC2)c1 [Roflumilast, 3-Cyclopropylmethoxy-4-difluoromethoxy-N-(3,5-dichloropyrid-4-yl)-benzamide] | % reduction of ΔOD690/min (Male NMRI mice [6]; PDE4 inhibitor 3 mg/kg p.o., curative): 95%; % reduction of ΔOD690/min (Male NMRI mice [6]; PDE4 inhibitor 10 mg/kg p.o., preventive): 95% |
| – | – | – | – | COc1ccc(C2CNC(=O)C2)cc1OC1CCCC1 (centres unmarked) [Rolipram] | % reduction of ΔOD690/min (Male NMRI mice [5]): 65%; % reduction of ΔOD690/min (Male NMRI mice [6]; PDE4 inhibitor 10 mg/kg p.o., curative): 82%; % reduction of ΔOD690/min (Male NMRI mice [6]; PDE4 inhibitor 30 mg/kg p.o., preventive): 90% |
| – | – | – | – | CCCc1nn(C)c2c(=O)[nH]c(-c3cc(S(=O)(=O)N4CCN(C)CC4)ccc3OCC)nc12 [sildenafil] | protection from NSAID-induced blood loss (Male NMRI mice [6]; diclofenac 10-100 mg/kg p.o. t=0 h, sildenafil 3-100 mg/kg p.o. t=-48 h to +7 h): no protection |

| SMILES | IC50 [1] | PDE4 activity (in words) [1] | IC50 PDE5 [2] | PDE5 activity (in words) [2] | other results |
| --- | --- | --- | --- | --- | --- |
| CC(=O)Oc1ccccc1C(=O)O [ASS, 2-(acetyloxy)benzoic acid] | > 100 µM | only minor effects | >100 µM | only minor effects | – |
| Cc1ccc(-c2cc(C(F)(F)F)nn2-c2ccc(S(N)(=O)=O)cc2)cc1 [Celecoxib, 4-[5-(4-methylphenyl)-3-(tri-fluoromethyl)-1H-pyrazol-1-yl]benzenesulfonamide] | 6 µM | in the μM range | – | in the μM range | heart rate [3]: no effect; left ventricular pressure [3]: no effect; coronary heart flow ([3]; doses consistent with inhibitory potency on PDE4 and 5): selectively increased |
